# Reference: patent US9642366B2, “Active substance combinations that have nematicidal, insecticidal, and fungicidal properties and are based on trifluorobutenyl compounds” (priority 2003, dated 2017)
# “And” between values parts separate entries of the source, which are not always exact repeats. Identical values can stand only once.
# Columns and labels:
# Phytophthora cactorum = assay: Mycelium growth test with Phytophthora cactorum; format: cell-based; details: single active compound
# Meloidogyne incognita = assay: Meloidogyne test (nematicidal action, gall formation on lettuce roots); format: in vivo; details: single active compound
# Text: (§1) The expected action for a given combination of two active compounds can be calculated as follows (cf. Colby, S. R., “Calculating Synergistic and Antagonistic Responses of Herbicide Combinations”, Weeds 15 (1967), 20-22):
# (§2) If • X is the efficacy or kill rate, expressed as a percentage of the untreated control, when employing active compound A in a concentration of m ppm, • Y is the efficacy or kill rate, expressed as a percentage of the untreated control, when employing active compound B in a concentration of […] and • E is the efficacy or kill rate, expressed as a percentage of the untreated control, when employing active compounds A and B in a concentration of m and n ppm,
# (§3) If the actual fungicidal or nematicidal, insecticidal and/or acaricidal action exceeds the calculated value, the action of the combination is superadditive, i.e. a synergistic effect is present. In this case, the actually observed efficacy or kill rate must exceed the value calculated using the above formula for the expected efficacy (E).
# Solvent: 7 parts by weight of dimethylformamide
# Emulsifier: 2 parts by weight of alkylaryl polyglycol ether
# To produce a suitable preparation of active compound, 1 part by weight of active compound is mixed with the stated amounts of solvent and emulsifier, and the concentrate is diluted with water to the desired concentration.
# Vessels are filled with sand, solution of active compound, Meloidogyne incognita egg/larvae suspension and lettuce seeds. The lettuce seeds germinate and plants develop. On the roots, galls are formed.
# After the desired period of time, the nematicidal action is determined in % by the formation of galls. 100% means that no galls have been found; 0% means that the number of galls on the treated plants corresponds to that of the untreated control. The determined kill rates are inserted into Colby's formula.
# Rhizoctonia solani = assay: Mycelium growth test with Rhizoctonia solani; format: cell-based; details: single active compound
# Phythium ultimum = assay: Mycelium growth test with Phythium ultimum; format: cell-based; details: single active compound
# [1] = test system: Plutella xylostella, sensitive strain; assay: Plutella test, sensitive strain (insecticidal action, dipped cabbage leaves); format: in vivo; details: 100 ppm, single active compound
# Text: as §1, §2, §3
# Solvent: 7 parts by weight of dimethylformamide […]
# Cabbage leaves (Brassica oleracea) are treated by being dipped into the preparation of active compound of the desired concentration and are populated with caterpillars of the diamondback moth (Plutella xylostella, sensitive strain) while the leaves are still moist. After the desired period of time, the kill in % is determined. […]
# Fusarium nivale = assay: Mycelium growth test with Fusarium nivale; format: cell-based; details: 1 ppm in the nutrient medium, single active compound
compound,measurement,setting,value
O=C(Nc1ccccc1)N(Cc1ccc(Cl)cc1)C1CCCC1 [pencycuron],Efficacy [%],Phytophthora cactorum; 200 ppm in the nutrient medium,0%
N#Cc1c[nH]cc1-c1cccc2c1OC(F)(F)O2 [fludioxonil],Kill rate [%] after 14 days,Meloidogyne incognita; 20 ppm,0%
CCCN(CCOc1c(Cl)cc(Cl)cc1Cl)C(=O)n1ccnc1 [prochloraz],Efficacy [%],Phytophthora cactorum; 50 ppm in the nutrient medium,30%
CO/N=C(/C1=NOCCO1)c1ccccc1Oc1ncnc(Oc2ccccc2Cl)c1F [fluoxastrobin],Efficacy [%],Rhizoctonia solani; 1 ppm in the nutrient medium,39%
same,Efficacy [%],Phytophthora cactorum; 5 ppm in the nutrient medium,28%
same,Efficacy [%],Phythium ultimum; 10 ppm in the nutrient medium,74%
CC(C)NC(=O)N1CC(=O)N(c2cc(Cl)cc(Cl)c2)C1=O [iprodione],Efficacy [%],Phythium ultimum; 200 ppm in the nutrient medium,9%
CO/N=C(\C(=O)OC)c1ccccc1CO/N=C(\C)c1cccc(C(F)(F)F)c1 [trifloxystrobin],Kill rate [%] after 14 days,Meloidogyne incognita; 20 ppm,0%
same,Efficacy [%],Rhizoctonia solani; 1 ppm in the nutrient medium,39%
same,Efficacy [%],Phytophthora cactorum; 10 ppm in the nutrient medium,29%
same,Kill rate [%] after 3 days,[1],15%
CC(C)(C)C(O)(CCc1ccc(Cl)cc1)Cn1cncn1 (centres unmarked) [tebuconazole],Efficacy [%],Phytophthora cactorum; 100 ppm in the nutrient medium,12%
same,Efficacy [%],Phythium ultimum; 100 ppm in the nutrient medium,72%
O=S(=O)(CCC(F)=C(F)F)c1ncc(Cl)s1 [(IC)],Kill rate [%] after 14 days,Meloidogyne incognita; 0.8 ppm,50%
same,Efficacy [%],Rhizoctonia solani; 1 ppm in the nutrient medium,0%
same,Efficacy [%],Rhizoctonia solani; 10 ppm in the nutrient medium,49%
same,Efficacy [%],Phytophthora cactorum; 50 ppm in the nutrient medium,7%
same,Efficacy [%],Phytophthora cactorum; 100 ppm in the nutrient medium,18% and 23%
same,Efficacy [%],Fusarium nivale,15%
same,Kill rate [%] after 3 days,[1],0%
tolylfluanid,Efficacy [%],Phytophthora cactorum; 10 ppm in the nutrient medium,65%
same,Efficacy [%],Phythium ultimum; 10 ppm in the nutrient medium,82%
OC(Cc1ccccc1Cl)(Cn1nc[nH]c1=S)C1(Cl)CC1 (centres unmarked) [prothioconazole],Kill rate [%] after 14 days,Meloidogyne incognita; 20 ppm,50%
